Reference: PubChem BioAssay (NCI)
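Protocol summary: plate cells (96-well), add compound at 5 concentrations, incubate 48 h, interpolate endpoints linearly. TGI denotes the concentration required for complete inhibition of growth.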

Experiments:
Test in all cases: NCI anticancer screen, dose series, 48 h
COLO 205 colon = tested on: COLO 205 colon
EKVX NSCLC = tested on: EKVX NSCLC
HCT-15 colon = tested on: HCT-15 colon
IGROV1 ovarian = tested on: IGROV1 ovarian
MDA-N = tested on: MDA-N
NCI-H23 lung = tested on: NCI-H23 lung
OVCAR-5 ovarian = tested on: OVCAR-5 ovarian
OVCAR-8 ovarian = tested on: OVCAR-8 ovarian
SK-MEL-28 melanoma = tested on: SK-MEL-28 melanoma
T-47D breast = tested on: T-47D breast

| SMILES | TGI (COLO 205 colon) [µM] | TGI (EKVX NSCLC) [µM] | TGI (HCT-15 colon) [µM] | TGI (IGROV1 ovarian) [µM] | TGI (MDA-N) [µM] | TGI (NCI-H23 lung) [µM] | TGI (OVCAR-5 ovarian) [µM] | TGI (OVCAR-8 ovarian) [µM] | TGI (SK-MEL-28 melanoma) [µM] | TGI (T-47D breast) [µM] |
| --- | --- | --- | --- | --- | --- | --- | --- | --- | --- | --- |
| OC(CC(c1ccccc1)c1ccc(Cl)cc1)c1ccc(Cl)cc1 (stereo not given) | 34.8 | 74.7 | > 100 | > 100 | > 100 | 87.8 | 62 | > 100 | > 100 | 88.4 |
| c1ccc2c(c1)CC1c3[nH]c4ccccc4c3CCN21 (stereo not given) | > 10 | > 10 | > 10 | > 10 | > 10 | > 10 | > 10 | > 10 | > 10 | > 10 |
| CC1=NNC(N)=N/C1=C/C(Sc1ccc(Cl)cc1)c1cccs1 (stereo not given) | 46.2 | 30.3 | 30 | 29 | 85 | 52 | 35.2 | 57.2 | 39.7 | 62.2 |
| O=C1/C(=C/c2cccc(Oc3ccccc3)c2)N=C(c2ccccc2)N1c1nc2ccc(Sc3ccccc3)cc2[nH]1 | 31.5 | > 100 | > 100 | > 100 | 35.8 | > 100 | > 100 | > 100 | > 100 | > 100 |
| O=S1(=O)NNC(=NCc2ccc(F)cc2)c2ccccc21 | > 100 | > 100 | > 100 | > 100 | > 100 | > 100 | > 100 | > 100 | > 100 | > 100 |
| CC(=O)N[C@@H](Cc1ccc(O)cn1)C(=O)NCc1ccc2c(c1)OCO2 | > 100 | > 100 | > 100 | > 100 | > 100 | > 100 | > 100 | > 100 | > 100 | > 100 |
| Cc1ncc([N+](=O)[O-])n1CCN=[N+]=[N-] | > 100 | > 100 | > 100 | > 100 | > 100 | > 100 | > 100 | > 100 | > 100 | > 100 |
| O=C1NC(=O)/C(=C\c2ccncc2)N1 | > 100 | > 100 | > 100 | > 100 | > 100 | > 100 | > 100 | > 100 | > 100 | > 100 |
| COc1ccc(C2CC(c3c(C)nn(-c4ccccc4)c3-c3ccc(C)cc3O)=NN2c2ccccc2)cc1 (stereo not given) | > 100 | > 100 | > 100 | > 100 | > 100 | > 30.3 | > 100 | > 100 | > 100 | > 100 |
| CCCCn1cc(C(=O)O)c(=O)c2c3sccc3ccc21 | > 100 | > 100 | > 100 | > 100 | > 100 | > 100 | > 100 | > 100 | > 100 | > 100 |
| c1ccc2c3c(ccc2c1)CSCc1ccc2ccccc2c1-3 | > 100 | > 100 | > 100 | > 100 | > 100 | > 100 | > 100 | > 100 | > 100 | > 100 |
| O=C1CSC2(CC(/C=C/C=C/c3ccccc3)=NN2c2cccc(S(=O)(=O)O)c2)N1c1nc2ccccc2s1 (stereo not given) | > 100 | > 100 | > 100 | > 100 | > 100 | > 100 | > 100 | > 100 | > 100 | > 100 |
| CN(C)CCCn1c2ccccc2c2cnccc21 | 30.2 | > 100 | > 100 | > 100 | > 100 | > 100 | > 100 | > 100 | > 100 | > 100 |
| C/C(=N\N=C(N)N)c1c(C(=O)OCCCCCCOC(=O)c2nc3sccn3c2/C(C)=N/N=C(N)N)nc2sccn12 | > 100 | > 100 | > 100 | > 100 | > 100 | > 100 | > 100 | > 100 | > 100 | 42.5 |
| O=C1CCC2(CC1)Cc1ccccc1C2O (stereo not given) | > 100 | > 100 | > 100 | > 100 | > 100 | > 100 | > 100 | > 100 | > 100 | > 100 |
| CCCCC[C@H](O)[C@H](C)C=C1SCCCS1 | > 100 | > 100 | > 100 | > 100 | > 100 | > 100 | > 100 | > 100 | > 100 | > 100 |
